Test results reported in patent publication US9050341B2, “Methods of treating drug resistant and other tumors by administering 6,7-dialkoxy quinazoline derivatives” (NATCO PHARMA LIMITED, priority 2009, dated 2015).

Experiments:
Experiment in all cases: KinomeScan kinase profiling
Format in all cases: binding
SgK085 = molecular target: T1, SgK085 (Homo sapiens, UniProt Q86YV6)
T1 construct: host or cells: E. coli host derived from the BL21 strain, T7 phage lysate
Excerpt: (§1) The kinases were ABL1(F317L), ABL1(H396P), ABL1(Q252H), ABL1(Y253F), ADCK3, ADCK4, ALK, ARK5, AXL, BLK, BRSK2, CDK7, CIT, CLK4, CSNK1D, CSNK1E, DAPK1, DAPK3, DCAMKL3, DMPK, EGFR, EGFR(E746-A750DEL), EGFR(G719C), EGFR(G719S), EGFR(L747-E749DEL, A750P), EGFR(L747-S752 DEL, P753S), EGFR(L747-T751DEL, Sin), EGFR(L858R), EGFR(L861Q), EGFR(S752-I759DEL), EPHA5, EPHA6, ERBB2, ERBB4, ERK3, ERK4, FGR, FLT3(D835H), FLT3(D835Y), FLT3(ITD), FLT3(N841 I), FRK, GAK, GCN2(KIN.DOM.2, S808G), HCK, IRAK3, JAK1(KIN.DOM.1), KIT, KIT(D816V), KIT(V559D), KIT(V559D,T670I), LCK, LOK, LTK, LYN, MAP3K3, MAP4K4, MAP4K5, MET, MINK, MKNK1, MKNK2, MST4, MYLK2, PDGFRB, PIM3, PKN2, PRKD1, PRKD2, PRKD3, PRKG1, RIPK2, RPS6KA4(KIN.DOM.2), SIK2, SLK, SNARK, SRC, STK36, TNIK, TNNI3K, TYK2(KIN.DOM.2).
(§2) Kinase assays: Assays were performed as described in Fabian et al. (2005) Nature Biotechnology, vol. 23, p. 329. Kinase-tagged T7 phage strains were grown in parallel in 24 or 96-well blocks in an E. coli host derived from the BL21 strain. E. coli were grown to log-phase and infected with T7 phage from a frozen stock (multiplicity of infection ˜0.1) and incubated with shaking at 32° C. until lysis (˜90 minutes). The lysates were centrifuged and filtered to remove cell debris. […] The liganded beads were blocked with excess biotin and washed with blocking buffer (SeaBlock (Pierce), 1% BSA, 0.05% Tween 20, 1 mM DTT) to remove unbound ligand and to reduce non-specific phage binding.
(§3) Test compounds were prepared as 40× stocks in DMSO and diluted into the aqueous environment. 2.5% DMSO was added to control assays lacking a test compound. All reactions were performed in polystyrene 96-well plates that had been pretreated with blocking buffer in a final volume of 0.04 ml. […] The phage titer in the eluates was measured by quantitative PCR.

HCK = molecular target: T2, HCK (Homo sapiens, UniProt P08631)
T2 construct: host or cells: E. coli host derived from BL21, infected with T7 phage
T2 sequence (P08631 whole entry): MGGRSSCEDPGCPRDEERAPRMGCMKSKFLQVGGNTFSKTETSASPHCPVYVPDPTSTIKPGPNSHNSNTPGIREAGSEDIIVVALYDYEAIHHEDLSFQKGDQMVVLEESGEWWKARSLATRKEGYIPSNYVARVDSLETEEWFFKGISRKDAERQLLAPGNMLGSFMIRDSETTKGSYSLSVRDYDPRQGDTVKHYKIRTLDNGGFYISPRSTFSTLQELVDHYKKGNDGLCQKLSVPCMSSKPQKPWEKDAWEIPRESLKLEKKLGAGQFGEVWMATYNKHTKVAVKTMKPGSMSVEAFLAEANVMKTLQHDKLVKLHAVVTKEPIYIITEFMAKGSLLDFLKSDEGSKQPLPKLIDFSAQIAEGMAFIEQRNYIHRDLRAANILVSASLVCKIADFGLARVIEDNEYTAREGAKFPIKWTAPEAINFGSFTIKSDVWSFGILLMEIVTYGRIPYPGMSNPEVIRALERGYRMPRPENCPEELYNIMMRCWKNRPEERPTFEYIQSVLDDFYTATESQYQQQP
Excerpt: as §1, §2, §3

PAK3 = molecular target: T3, PAK3 (Homo sapiens, UniProt O75914)
T3 construct: host or cells: E. coli host derived from the BL21 strain, infected with T7 phage
Excerpt: as §1, §2, §3

FYN = molecular target: T4, FYN (Homo sapiens, UniProt P06241)
T4 construct: host or cells: E. coli host derived from BL21, infected with T7 phage
Excerpt: as §1, §2, §3

STK36 = molecular target: T5, STK36 (Homo sapiens, UniProt Q9NRP7)
T5 construct: host or cells: E. coli host derived from the BL21 strain, T7 phage lysate
T5 sequence (Q9NRP7 whole entry): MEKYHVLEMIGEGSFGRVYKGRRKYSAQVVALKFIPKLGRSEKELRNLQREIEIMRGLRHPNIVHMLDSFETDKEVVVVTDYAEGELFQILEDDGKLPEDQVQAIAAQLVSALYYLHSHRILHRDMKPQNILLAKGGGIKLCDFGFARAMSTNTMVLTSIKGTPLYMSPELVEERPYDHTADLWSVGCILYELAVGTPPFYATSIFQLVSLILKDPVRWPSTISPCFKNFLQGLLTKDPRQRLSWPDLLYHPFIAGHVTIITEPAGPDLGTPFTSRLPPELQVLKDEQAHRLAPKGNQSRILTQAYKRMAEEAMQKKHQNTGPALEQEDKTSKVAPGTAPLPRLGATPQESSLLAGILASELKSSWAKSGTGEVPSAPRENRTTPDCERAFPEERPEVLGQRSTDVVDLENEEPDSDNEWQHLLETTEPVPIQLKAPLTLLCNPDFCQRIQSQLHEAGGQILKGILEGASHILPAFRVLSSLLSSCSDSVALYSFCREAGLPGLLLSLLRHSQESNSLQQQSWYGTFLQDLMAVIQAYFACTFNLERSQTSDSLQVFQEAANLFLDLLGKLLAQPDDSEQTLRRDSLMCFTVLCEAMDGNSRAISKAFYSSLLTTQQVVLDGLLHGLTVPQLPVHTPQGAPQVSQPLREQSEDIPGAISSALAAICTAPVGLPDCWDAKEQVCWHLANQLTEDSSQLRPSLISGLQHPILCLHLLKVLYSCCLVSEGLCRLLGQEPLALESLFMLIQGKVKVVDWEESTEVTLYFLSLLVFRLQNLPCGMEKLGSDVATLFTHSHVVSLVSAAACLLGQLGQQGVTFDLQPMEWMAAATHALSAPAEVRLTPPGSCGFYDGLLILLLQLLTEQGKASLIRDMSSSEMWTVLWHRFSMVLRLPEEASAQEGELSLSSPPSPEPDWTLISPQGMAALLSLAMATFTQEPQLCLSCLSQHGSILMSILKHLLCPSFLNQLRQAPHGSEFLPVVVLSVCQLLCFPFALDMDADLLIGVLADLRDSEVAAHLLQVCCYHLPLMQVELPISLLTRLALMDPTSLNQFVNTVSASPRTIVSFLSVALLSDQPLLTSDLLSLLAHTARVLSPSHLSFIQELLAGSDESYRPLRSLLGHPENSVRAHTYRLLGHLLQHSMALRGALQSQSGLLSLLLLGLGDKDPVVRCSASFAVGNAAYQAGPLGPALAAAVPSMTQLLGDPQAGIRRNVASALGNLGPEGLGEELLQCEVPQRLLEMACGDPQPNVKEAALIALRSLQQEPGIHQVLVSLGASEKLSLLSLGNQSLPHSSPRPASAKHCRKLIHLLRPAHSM
Excerpt: as §1, §2, §3

MAP4K4 = molecular target: T6, MAP4K4 (Homo sapiens, UniProt O95819)
T6 construct: host or cells: E. coli derived from BL21, infected with T7 phage
Excerpt: as §1, §2, §3

VEGFR2 = molecular target: T7, VEGFR2 (Homo sapiens, UniProt P35968)
T7 construct: purchased Ambit Biosciences Corp (KinomeScan); host or cells: E. coli host derived from the BL21 strain (T7 phage lysate)
Excerpt: as §1, §2, §3

[1] = molecular target: T8, EGFR (L747-T751del, Sins) (Homo sapiens, UniProt P00533, DEL747-750/T751S)
T8 construct: host or cells: E. coli host derived from BL21, T7 phage lysate
Excerpt: as §1, §2, §3

MKNK1 = molecular target: T9, MKNK1 (Homo sapiens, UniProt Q9BUB5)
T9 construct: host or cells: T7 phage in E. coli host derived from BL21
T9 sequence (Q9BUB5 whole entry): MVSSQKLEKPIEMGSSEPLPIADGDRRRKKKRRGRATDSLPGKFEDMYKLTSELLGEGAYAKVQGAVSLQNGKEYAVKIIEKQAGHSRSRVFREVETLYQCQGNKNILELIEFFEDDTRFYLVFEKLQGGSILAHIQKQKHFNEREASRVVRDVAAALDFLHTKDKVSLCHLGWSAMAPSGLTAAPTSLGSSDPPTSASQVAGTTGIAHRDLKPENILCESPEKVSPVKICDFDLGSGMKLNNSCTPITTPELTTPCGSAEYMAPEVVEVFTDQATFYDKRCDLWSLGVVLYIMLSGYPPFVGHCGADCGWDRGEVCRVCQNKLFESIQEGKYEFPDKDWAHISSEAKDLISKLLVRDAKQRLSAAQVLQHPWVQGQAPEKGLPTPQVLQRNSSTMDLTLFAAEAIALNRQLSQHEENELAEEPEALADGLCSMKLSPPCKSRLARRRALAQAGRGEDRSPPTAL
Excerpt: as §1, §2, §3

BLK = molecular target: T10, BLK (Homo sapiens, UniProt P51451)
T10 construct: purchased Ambit Biosciences Corp (KinomeScan); host or cells: E. coli host derived from the BL21 strain, T7 phage
Excerpt: as §1, §2, §3

ALK = molecular target: T11, ALK (Homo sapiens, UniProt Q9UM73)
T11 construct: host or cells: E. coli host derived from BL21 (T7 phage lysate)
Excerpt: as §1, §2, §3

EPHA4 = molecular target: T12, EPHA4 (Homo sapiens, UniProt P54764)
T12 construct: host or cells: E. coli host derived from BL21, T7 phage lysate
T12 sequence (P54764 20-986): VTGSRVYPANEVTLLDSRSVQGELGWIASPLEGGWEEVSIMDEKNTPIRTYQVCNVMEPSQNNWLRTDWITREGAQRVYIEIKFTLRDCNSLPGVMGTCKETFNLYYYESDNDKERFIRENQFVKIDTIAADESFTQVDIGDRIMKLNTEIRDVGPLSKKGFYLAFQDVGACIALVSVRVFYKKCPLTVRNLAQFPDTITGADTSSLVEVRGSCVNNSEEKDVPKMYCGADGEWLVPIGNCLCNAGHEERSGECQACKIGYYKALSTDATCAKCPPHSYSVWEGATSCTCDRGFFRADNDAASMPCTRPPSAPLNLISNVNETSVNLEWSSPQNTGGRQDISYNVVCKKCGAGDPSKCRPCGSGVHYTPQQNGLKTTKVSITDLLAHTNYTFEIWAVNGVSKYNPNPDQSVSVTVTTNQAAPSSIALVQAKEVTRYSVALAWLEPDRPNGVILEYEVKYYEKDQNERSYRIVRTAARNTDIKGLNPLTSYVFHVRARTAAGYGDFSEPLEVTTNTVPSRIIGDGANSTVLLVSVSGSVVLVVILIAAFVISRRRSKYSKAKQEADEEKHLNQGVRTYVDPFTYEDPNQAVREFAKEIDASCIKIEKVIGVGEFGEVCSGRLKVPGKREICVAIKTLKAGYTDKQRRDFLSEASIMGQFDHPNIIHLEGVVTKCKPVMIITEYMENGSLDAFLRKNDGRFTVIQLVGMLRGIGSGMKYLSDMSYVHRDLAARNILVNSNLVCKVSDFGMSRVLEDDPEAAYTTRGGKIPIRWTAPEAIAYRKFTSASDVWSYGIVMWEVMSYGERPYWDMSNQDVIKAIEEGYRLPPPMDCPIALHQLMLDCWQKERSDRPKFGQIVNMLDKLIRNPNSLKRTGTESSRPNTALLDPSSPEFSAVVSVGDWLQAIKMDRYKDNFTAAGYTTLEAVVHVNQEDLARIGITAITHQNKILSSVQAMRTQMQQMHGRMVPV
Excerpt: as §1, §2, §3

[2] = molecular target: T13, TYK2 (JH2domain-pseudokinase) (Homo sapiens, UniProt P29597)
T13 construct: TYK2 (JH2domain-pseudokinase); purchased Ambit Biosciences Corp (KinomeScan); host or cells: E. coli host derived from the BL21 strain (T7 phage lysate)
T13 sequence (P29597 589-875 limits assumed): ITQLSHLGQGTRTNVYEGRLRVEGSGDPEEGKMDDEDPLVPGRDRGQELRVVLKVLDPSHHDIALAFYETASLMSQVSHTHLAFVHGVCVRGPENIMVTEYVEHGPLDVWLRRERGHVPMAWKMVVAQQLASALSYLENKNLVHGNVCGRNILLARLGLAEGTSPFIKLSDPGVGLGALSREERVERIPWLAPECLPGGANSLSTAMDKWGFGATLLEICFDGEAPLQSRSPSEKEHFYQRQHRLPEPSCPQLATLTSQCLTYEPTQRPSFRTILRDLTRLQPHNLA
Excerpt: as §1, §2, §3

CSNK2A1 = molecular target: T14, CSNK2A1 (Homo sapiens, UniProt P68400)
T14 construct: purchased Ambit Biosciences Corp (KinomeScan); host or cells: T7 phage in E. coli host derived from BL21
T14 sequence (P68400 whole entry): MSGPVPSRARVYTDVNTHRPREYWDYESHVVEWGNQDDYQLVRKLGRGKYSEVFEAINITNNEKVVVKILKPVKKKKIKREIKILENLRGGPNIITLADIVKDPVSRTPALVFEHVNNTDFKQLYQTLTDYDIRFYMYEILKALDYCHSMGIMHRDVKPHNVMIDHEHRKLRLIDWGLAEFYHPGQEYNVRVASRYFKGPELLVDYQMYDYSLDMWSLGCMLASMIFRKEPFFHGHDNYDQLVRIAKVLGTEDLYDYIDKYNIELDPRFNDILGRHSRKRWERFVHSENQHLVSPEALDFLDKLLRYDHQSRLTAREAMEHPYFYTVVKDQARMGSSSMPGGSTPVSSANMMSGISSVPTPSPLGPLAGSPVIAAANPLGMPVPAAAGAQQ
Excerpt: as §1, §2, §3

EGFR (G719C) = molecular target: T15, EGFR (G719C) (Homo sapiens, UniProt P00533, G719C)
T15 construct: purchased Ambit Biosciences Corp (KinomeScan); host or cells: T7 phage in E. coli host derived from BL21
Excerpt: as §1, §2, §3

MAP3K3 = molecular target: T16, MAP3K3 (Homo sapiens, UniProt Q99759)
T16 construct: host or cells: E. coli derived from BL21, infected with T7 phage
Excerpt: as §1, §2, §3

BRAF = molecular target: T17, BRAF (Homo sapiens, UniProt P15056)
T17 construct: purchased Ambit Biosciences Corp (KinomeScan); host or cells: E. coli host derived from the BL21 strain, T7 phage
Excerpt: as §1, §2, §3

RAF1 = molecular target: T18, RAF1 (Homo sapiens, UniProt P04049)
T18 construct: host or cells: E. coli host derived from BL21, T7 phage lysate
Excerpt: as §1, §2, §3

[3] = molecular target: T19, TYK2 (JH1domain-catalytic) (Homo sapiens, UniProt P29597)
T19 construct: TYK2 (JH1domain-catalytic); purchased Ambit Biosciences Corp (KinomeScan); host or cells: E. coli host derived from the BL21 strain (T7 phage lysate)
T19 sequence (P29597 897-1176 limits assumed): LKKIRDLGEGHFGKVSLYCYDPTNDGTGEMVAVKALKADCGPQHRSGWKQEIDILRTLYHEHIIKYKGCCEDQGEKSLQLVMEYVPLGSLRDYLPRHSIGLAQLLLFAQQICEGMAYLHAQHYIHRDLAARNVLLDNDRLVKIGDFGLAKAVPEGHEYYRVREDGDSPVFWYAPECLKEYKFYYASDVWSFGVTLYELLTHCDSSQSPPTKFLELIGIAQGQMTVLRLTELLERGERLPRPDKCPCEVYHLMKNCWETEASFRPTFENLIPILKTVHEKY
Excerpt: as §1, §2, §3

SNARK = molecular target: T20, SNARK (Homo sapiens, UniProt Q9H093)
T20 construct: host or cells: E. coli host derived from the BL21 strain, T7 phage lysate
T20 sequence (Q9H093 whole entry): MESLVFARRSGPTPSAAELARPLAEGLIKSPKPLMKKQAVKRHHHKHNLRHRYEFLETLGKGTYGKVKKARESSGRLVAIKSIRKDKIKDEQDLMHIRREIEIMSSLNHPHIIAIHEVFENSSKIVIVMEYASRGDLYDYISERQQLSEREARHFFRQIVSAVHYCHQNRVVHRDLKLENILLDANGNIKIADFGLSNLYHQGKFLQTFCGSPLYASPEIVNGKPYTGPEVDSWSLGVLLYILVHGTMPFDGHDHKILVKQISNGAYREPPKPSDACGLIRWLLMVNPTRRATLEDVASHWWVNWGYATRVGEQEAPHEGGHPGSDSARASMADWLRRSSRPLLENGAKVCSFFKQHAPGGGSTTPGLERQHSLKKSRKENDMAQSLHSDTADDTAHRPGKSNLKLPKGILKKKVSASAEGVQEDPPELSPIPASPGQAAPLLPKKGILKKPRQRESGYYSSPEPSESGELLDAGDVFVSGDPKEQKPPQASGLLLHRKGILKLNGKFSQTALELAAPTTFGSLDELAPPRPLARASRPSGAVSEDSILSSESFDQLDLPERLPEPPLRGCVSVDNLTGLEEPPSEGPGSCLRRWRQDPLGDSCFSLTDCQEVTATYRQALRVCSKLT
Excerpt: as §1, §2, §3

PRKD2 = molecular target: T21, PRKD2 (Homo sapiens, UniProt Q9BZL6)
T21 construct: purchased Ambit Biosciences Corp (KinomeScan); host or cells: E. coli host derived from BL21, infected with T7 phage
Excerpt: as §1, §2, §3

C#Cc1cccc(Nc2ncnc3cc(OC)c(OCCCN4CCOCC4)cc23)c1 [NRC-2694, N-(3-ethylnylphenyl)-7-methoxy-6-[3-(4-morpholinyl)propoxy]-4-quinazolinamine]
% Ctrl @ 10000 nM (SgK085): 84 % Ctrl
% Ctrl @ 10000 nM (HCK): 17 % Ctrl
% Ctrl @ 10000 nM (PAK3): 55 % Ctrl
% Ctrl @ 10000 nM (FYN): 41 % Ctrl
% Ctrl @ 10000 nM (STK36): 4.6 % Ctrl
% Ctrl @ 10000 nM (MAP4K4): 20 % Ctrl
% Ctrl @ 10000 nM (VEGFR2): 95 % Ctrl
% Ctrl @ 10000 nM [1]: 0 % Ctrl
% Ctrl @ 10000 nM (MKNK1): 1.2 % Ctrl
% Ctrl @ 10000 nM (BLK): 4.4 % Ctrl
% Ctrl @ 10000 nM (ALK): 10 % Ctrl
% Ctrl @ 10000 nM (EPHA4): 64 % Ctrl
% Ctrl @ 10000 nM [2]: 23 % Ctrl
% Ctrl @ 10000 nM (CSNK2A1): 56 % Ctrl
% Ctrl @ 10000 nM (EGFR (G719C)): 0 % Ctrl
% Ctrl @ 10000 nM (MAP3K3): 5.9 % Ctrl
% Ctrl @ 10000 nM (BRAF): 81 % Ctrl
% Ctrl @ 10000 nM (RAF1): 100 % Ctrl
% Ctrl @ 10000 nM [3]: 97 % Ctrl
% Ctrl @ 10000 nM (SNARK): 19 % Ctrl
% Ctrl @ 10000 nM (PRKD2): 0.4 % Ctrl
